Reference: patent US10556888B2, “Pyrazole compounds or salts thereof, preparation methods therefor, herbicidal compositions and use thereof” (QINGDAO KINGAGROOT CHEMICAL COMPOUNDS CO., LTD, priority 2015, dated 2020)

Columns and labels:
Format in all cases: in vivo
[1] = system: main crop (wheat, corn, rice, soybean, cotton, oilseed, millet and sorghum); assay: Post-emergence test experiment, main crops (Table 2); set-up: key: Level 10: completely dead; Level 9: above 90% growth inhibition rate; Level 8: above 80% growth inhibition rate; Level 7: above 70% growth inhibition rate; Level 6: above 60% growth inhibition rate; Level 5: above 50% growth inhibition rate; Level 4: above 30% growth inhibition rate; Level 3: above 20% growth inhibition rate; Level 2: above 10% growth inhibition rate; Level 1: above 1-10% growth inhibition rate; Level 0: no effect; settings: 3 weeks after spraying, greenhouse
Summary of the method: (§1)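 Weed and crop seeds (wheat, corn, rice, soybean, cotton, oilseed, millet, sorghum) grown in soil in greenhouse; sprayed at 2-3 leaf stage, 2-3 weeks after sowing, with compound in acetone/Tween 80/water. Effects assessed after 3 weeks further greenhouse culture.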

[2] = system: Monocotyledonous and dicotyledonous weed; assay: Post-emergence test experiment, weed control effect (Table 2); set-up: key to weed control effect, Setaria viridis (level) / weed control effect, Rorippa indica (level) / weed control effect, Abutilon theophrasti (level) / weed control effect, Echinochloa crus-galli (level) / weed control effect, Digitaria sanguinalis (level): Level 10: completely dead; Level 9: above 90% growth inhibition rate; Level 8: above 80% growth inhibition rate; Level 7: above 70% growth inhibition rate; Level 6: above 60% growth inhibition rate; Level 5: above 50% growth inhibition rate; Level 4: above 30% growth inhibition rate; Level 3: above 20% growth inhibition rate; Level 2: above 10% growth inhibition rate; Level 1: above 1-10% growth inhibition rate; Level 0: no effect; settings: 3 weeks after spraying, greenhouse
Summary of the method: as §1

Rice = assay: Transplanted rice safety evaluation; set-up: key: Level 10: completely dead; Level 9: above 90% growth inhibition rate; Level 8: above 80% growth inhibition rate; Level 7: above 70% growth inhibition rate; Level 6: above 60% growth inhibition rate; Level 5: above 50% growth inhibition rate; Level 4: above 30% growth inhibition rate; Level 3: above 20% growth inhibition rate; Level 2: above 10% growth inhibition rate; Level 1: above 1-10% growth inhibition rate; Level 0: no effect; settings: transplanted 3 leaf stage japonica rice, 21 days after treatment
Experimental: In addition, the rice field soil that loaded into the 1/1,000,000 ha pot was leveled to keep water storage at 3-4 cm depth. The 3 leaf stage rice (japonica rice) was transplanted at 3 cm of transplanting depth the next day. The compound of the present invention was treated by the same way after 5 days of transplantation. The fertility condition of Echinochloa, Scirpus juncoides, Bidens tripartite and Sagittaria trifolia 14 days after the treatment of the compound of the invention and the fertility condition of rice 21 days after the treatment of the compound of the invention respectively with the naked eye.

Echinochloa crus-galli = assay: Weed control effect evaluation in transplanted rice field; set-up: key: Level 10: completely dead; Level 9: above 90% growth inhibition rate; Level 8: above 80% growth inhibition rate; Level 7: above 70% growth inhibition rate; Level 6: above 60% growth inhibition rate; Level 5: above 50% growth inhibition rate; Level 4: above 30% growth inhibition rate; Level 3: above 20% growth inhibition rate; Level 2: above 10% growth inhibition rate; Level 1: above 1-10% growth inhibition rate; Level 0: no effect; settings: transplanted rice field pot test, 14 days after treatment
Experimental: (§2) Rice field soil was loaded into a 1/1,000,000 ha pot. The seeds of Echinochloa, Scirpus juncoides, Bidens tripartite and Sagittaria trifolia were sowed and gently covered with soil, then left to stand still in greenhouse in the state of 0.5-1 cm of water storage. The tuber of Sagittaria trifolia was planted in the next day or 2 days later. It was kept at 3-4 cm of water storage thereafter. The weeds were treated by dripping the WP or SC water diluents prepared according to the common preparation method of the compounds of the present invention with pipette homogeneously to achieve specified effective amount when Echinochloa, Scirpus juncoides and Bidens tripartite reached 0.5 leaf stage and Sagittaria trifolia reached the time point of primary leaf stage.
(§3) The fertility condition of Echinochloa, Scirpus juncoides, Bidens tripartite and Sagittaria trifolia 14 days after the treatment of the compound of the invention and the fertility condition of rice 21 days after the treatment of the compound of the invention respectively with the naked eye.
(§4) The seeds of Echinochloa crus-galli, Scirpus juncoides and Monochoria vaginalis were collected from Heilongjing and Jiangsu Province of China.

Scirpus juncoides = assay: as above; set-up: key: Level 10: completely dead; Level 9: above 90% growth inhibition rate; Level 8: above 80% growth inhibition rate; Level 7: above 70% growth inhibition rate; Level 6: above 60% growth inhibition rate; Level 5: above 50% growth inhibition rate; Level 4: above 30% growth inhibition rate; Level 3: above 20% growth inhibition rate; Level 2: above 10% growth inhibition rate; Level 1: above 1-10% growth inhibition rate; Level 0: no effect; settings: transplanted rice field pot test, 14 days after treatment
Experimental: as §2, §3, §4

Monochoria vaginalis = assay: as above; set-up: key: Level 10: completely dead; Level 9: above 90% growth inhibition rate; Level 8: above 80% growth inhibition rate; Level 7: above 70% growth inhibition rate; Level 6: above 60% growth inhibition rate; Level 5: above 50% growth inhibition rate; Level 4: above 30% growth inhibition rate; Level 3: above 20% growth inhibition rate; Level 2: above 10% growth inhibition rate; Level 1: above 1-10% growth inhibition rate; Level 0: no effect; settings: transplanted rice field pot test, 14 days after treatment
Experimental: as §2, §3, §4

C#CCOCc1c(S(C)(=O)=O)ccc(C(=O)c2c(CC)nn(CC)c2OC(=O)c2c(Cl)c(CC)nn2C)c1Cl [Compound 107]
effect on crop, corn (level) ([1]; 60 g/ha): 0 | effect on crop, rice (level) ([1]; 60 g/ha): 7 (Level 7: above 70% growth inhibition rate) | effect on crop, wheat (level) ([1]; 60 g/ha): 0 | weed control effect, Abutilon theophrasti (level) ([2]; 60 g/ha): 10 | weed control effect, Bidens pilosa (level) ([2]; 60 g/ha): 8 (Level 8: above 80% growth inhibition rate) | weed control effect, Digitaria sanguinalis (level) ([2]; 60 g/ha): 8 (Level 8: above 80% growth inhibition rate) | weed control effect, Echinochloa crus-galli (level) ([2]; 60 g/ha): 10 | weed control effect, Rorippa indica (level) ([2]; 60 g/ha): 10 | weed control effect, Setaria viridis (level) ([2]; 60 g/ha): 10 | Rice (safety, activity level) (Rice; application rate 60 g/ha): 10 | Weed control effect, Echinochloa crus-galli (activity level) (Echinochloa crus-galli; application rate 60 g/ha): 9 (Level 9: above 90% growth inhibition rate) | Weed control effect, Scirpus juncoides (activity level) (Scirpus juncoides; application rate 60 g/ha): 10 | Weed control effect, Monochoria vaginalis (activity level) (Monochoria vaginalis; application rate 60 g/ha): 10

Cc1ccn(Cc2c(S(C)(=O)=O)ccc(C(=O)c3c(C)nn(C)c3OC(=O)c3cn(C)nc3C)c2Cl)n1 [Compound 02]
effect on crop, corn (level) ([1]; 120 g/ha): 0 | effect on crop, rice (level) ([1]; 120 g/ha): 1 (Level 1: above 1-10% growth inhibition rate) | effect on crop, wheat (level) ([1]; 120 g/ha): 0 | weed control effect, Abutilon theophrasti (level) ([2]; 120 g/ha): 8 (Level 8: above 80% growth inhibition rate) | weed control effect, Bidens pilosa (level) ([2]; 120 g/ha): 9 (Level 9: above 90% growth inhibition rate) | weed control effect, Digitaria sanguinalis (level) ([2]; 120 g/ha): 2 (Level 2: above 10% growth inhibition rate) | weed control effect, Echinochloa crus-galli (level) ([2]; 120 g/ha): 10 | weed control effect, Rorippa indica (level) ([2]; 120 g/ha): 10 | weed control effect, Setaria viridis (level) ([2]; 120 g/ha): 6 (Level 6: above 60% growth inhibition rate) | Rice (safety, activity level) (Rice; application rate 500 g/ha): 0 | Weed control effect, Echinochloa crus-galli (activity level) (Echinochloa crus-galli; application rate 500 g/ha): 10 | Weed control effect, Scirpus juncoides (activity level) (Scirpus juncoides; application rate 500 g/ha): 10 | Weed control effect, Monochoria vaginalis (activity level) (Monochoria vaginalis; application rate 500 g/ha): 9 (Level 9: above 90% growth inhibition rate)

CCOc1c(C(=O)Oc2c(C(=O)c3ccc(S(C)(=O)=O)c(COCC(F)(F)F)c3Cl)c(C)nn2C)cnn1C [Compound 55]
effect on crop, corn (level) ([1]; 30 g/ha): 2 (Level 2: above 10% growth inhibition rate) | effect on crop, rice (level) ([1]; 30 g/ha): 3 (Level 3: above 20% growth inhibition rate) | effect on crop, wheat (level) ([1]; 30 g/ha): 0 | weed control effect, Abutilon theophrasti (level) ([2]; 30 g/ha): 7 (Level 7: above 70% growth inhibition rate) | weed control effect, Bidens pilosa (level) ([2]; 30 g/ha): 7 (Level 7: above 70% growth inhibition rate) | weed control effect, Digitaria sanguinalis (level) ([2]; 30 g/ha): 10 | weed control effect, Echinochloa crus-galli (level) ([2]; 30 g/ha): 10 | weed control effect, Rorippa indica (level) ([2]; 30 g/ha): 10 | weed control effect, Setaria viridis (level) ([2]; 30 g/ha): 10

Cc1nn(C)cc1C(=O)Oc1c(C(=O)c2ccc(S(C)(=O)=O)c(COCC(F)F)c2Cl)c(C2CC2)nn1C [Compound 50]
effect on crop, corn (level) ([1]; 30 g/ha): 0 | effect on crop, rice (level) ([1]; 30 g/ha): 3 (Level 3: above 20% growth inhibition rate) | effect on crop, wheat (level) ([1]; 30 g/ha): 0 | weed control effect, Abutilon theophrasti (level) ([2]; 30 g/ha): 6 (Level 6: above 60% growth inhibition rate) | weed control effect, Bidens pilosa (level) ([2]; 30 g/ha): 7 (Level 7: above 70% growth inhibition rate) | weed control effect, Digitaria sanguinalis (level) ([2]; 30 g/ha): 8 (Level 8: above 80% growth inhibition rate) | weed control effect, Echinochloa crus-galli (level) ([2]; 30 g/ha): 10 | weed control effect, Rorippa indica (level) ([2]; 30 g/ha): 10 | weed control effect, Setaria viridis (level) ([2]; 30 g/ha): 9 (Level 9: above 90% growth inhibition rate)
